This passage reports T/C results from PubChem BioAssay AID330 (DTP/NCI, 2004).

For this test, the system named is P388 leukemia ip, CD2F1 mice, survival T/C. Put plainly: NCI In Vivo Anticancer Drug Screen. Data for tumor model P388 Leukemia (intraperitoneal) in CD2F1 (CDF1) mice. The following applies: endpoint: median survival time, higher = longer survival. An outline of the steps:
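Mice carrying the transplanted tumor received test compound or vehicle. Survival was recorded in each group, and the value is the treated-group measurement divided by that of the vehicle-treated control group.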

Setting [1] is: dose: 100.0 mg/kg/injection, schedule: Q01DX009 (ip), vehicle: saline with Tween-80.
Setting [2] is: dose: 60.0 mg/kg/injection, schedule: Q01DX005 (ip), vehicle: saline with Tween-80.
[3] abbreviates: dose: 120.0 mg/kg/injection, schedule: Q01DX005 (ip), vehicle: saline with Tween-80.
Setting [4] is: dose: 240.0 mg/kg/injection, schedule: Q01DX005 (ip), vehicle: saline with Tween-80.
Where [5] appears, read: dose: 50.0 mg/kg/injection, schedule: Q01DX009 (ip), vehicle: saline.
Setting [6] is: dose: 100.0 mg/kg/injection, schedule: Q04DX003 (ip), vehicle: saline.
Setting [7] is: dose: 200.0 mg/kg/injection, schedule: Q04DX003 (ip), vehicle: saline.
Setting [8] is: dose: 50.0 mg/kg/injection, schedule: Q01DX005 (ip), vehicle: saline with Tween-80.
The mark [9] stands for this setting: dose: 100.0 mg/kg/injection, schedule: Q01DX005 (ip), vehicle: saline with Tween-80.
Where [10] appears, read: dose: 200.0 mg/kg/injection, schedule: Q01DX005 (ip), vehicle: saline with Tween-80.
Where [11] appears, read: dose: 50.0 mg/kg/injection, schedule: Q01DX009 (ip), vehicle: Klucel (hydroxypropylcellulose) (HPC).
Setting [12] is: dose: 100.0 mg/kg/injection, schedule: Q01DX009 (ip), vehicle: Klucel (hydroxypropylcellulose) (HPC).
Setting [13] is: dose: 200.0 mg/kg/injection, schedule: Q01DX009 (ip), vehicle: Klucel (hydroxypropylcellulose) (HPC).

Several values for one entry are separate records, joined by “and”; a condition that tells them apart may be missing. Equal values may be shown once. Inconclusive results and toxic doses are left out.

For `CN(C)c1ccc(-c2nc(-c3ccccc3)c(-c3ccccc3)[nH]2)cc1`, the T/C (dose: 50.0 mg/kg/injection, schedule: Q01DX009 (ip), vehicle: saline with Tween-80) was 104 % of control; the T/C under setting [1] is 100 % of control; the T/C (dose: 200.0 mg/kg/injection, schedule: Q01DX009 (ip), vehicle: saline with Tween-80) is 104 % of control; the T/C (dose: 400.0 mg/kg/injection, schedule: Q01DX009 (ip), vehicle: saline with Tween-80) is 106 % of control.

Turning to `Clc1nc2ccccc2nc1CI`, the T/C reads like this: (dose: 2.66 mg/kg/injection, schedule: Q01DX009 (ip), vehicle: other) 119 % of control; (dose: 4.0 mg/kg/injection, schedule: Q01DX009 (ip), vehicle: other) 119 % of control; (dose: 6.0 mg/kg/injection, schedule: Q01DX009 (ip), vehicle: other) 119 % of control; (dose: 9.0 mg/kg/injection, schedule: Q01DX009 (ip), vehicle: other) 114 % of control.

In the case of `CCOC(=O)Cc1cc(O)c(C(=O)OCC)c(O)c1C(=O)OCC`, the T/C runs as follows: (dose: 100.0 mg/kg/injection, schedule: Q01DX001 (ip), vehicle: saline with Tween-80) 105 % of control; (dose: 200.0 mg/kg/injection, schedule: Q01DX001 (ip), vehicle: saline with Tween-80) 105 % of control; (dose: 400.0 mg/kg/injection, schedule: Q01DX001 (ip), vehicle: saline with Tween-80) 99 % of control.

In the case of `COc1cc(OC)cc(C2SCC(=O)N2c2nncs2)c1` (configuration not stated), the T/C was 107 % of control under setting [2], 98 % of control under setting [3] and 93 % of control under setting [4].

Regarding `CNc1nc2c(N)ncnc2n1C1CC(O)C(CO)O1` (configuration not stated), the T/C was 101 % of control (dose: 50.0 mg/kg/injection, schedule: Q01DX005 (ip), vehicle: Klucel (hydroxypropylcellulose) (HPC)); 96 % of control (dose: 100.0 mg/kg/injection, schedule: Q01DX005 (ip), vehicle: Klucel (hydroxypropylcellulose) (HPC)); 104 % of control (dose: 200.0 mg/kg/injection, schedule: Q01DX005 (ip), vehicle: Klucel (hydroxypropylcellulose) (HPC)).

`CCCC(OC)=C(C(=O)OCC)C(=O)OCC`: the T/C runs as follows: under setting [5], 93 % of control; (dose: 100.0 mg/kg/injection, schedule: Q01DX009 (ip), vehicle: saline) 94 % of control; (dose: 200.0 mg/kg/injection, schedule: Q01DX009 (ip), vehicle: saline) 89 % of control.

On to `O=C(CC(=O)Oc1ccc(Cl)cc1Cl)Oc1ccc(Cl)cc1Cl`, for which the T/C (dose: 100.0 mg/kg/injection, schedule: Q04DX003 (ip), vehicle: saline with Tween-80) is 95 % of control; the T/C (dose: 200.0 mg/kg/injection, schedule: Q04DX003 (ip), vehicle: saline with Tween-80) was 91 % of control; the T/C (dose: 400.0 mg/kg/injection, schedule: Q04DX003 (ip), vehicle: saline with Tween-80) was 100 % of control.

Take `c1ccc(Cn2ccnc2)nc1`: the T/C runs as follows: (dose: 50.0 mg/kg/injection, schedule: Q04DX003 (ip), vehicle: saline) 103 % of control; under setting [6], 100 % of control; under setting [7], 101 % of control.

For the compound `COC(=O)COc1cc2c(cc1C(C)c1ccc(O)cc1)OCO2` (configuration not stated), the T/C runs as follows: under setting [8], 100 % of control; under setting [9], 102 % of control; under setting [10], 90 % of control.

In the case of `CN(C)CCCNC1=C(Cl)C(=O)C(NCCCN(C)C)=C(Cl)C1=O`, the T/C (dose: 6.25 mg/kg/injection, schedule: Q01DX009 (ip), vehicle: saline) is 91 % of control; the T/C (dose: 12.5 mg/kg/injection, schedule: Q01DX009 (ip), vehicle: saline) was 94 % of control; the T/C (dose: 25.0 mg/kg/injection, schedule: Q01DX009 (ip), vehicle: saline) was 111 % of control; the T/C under setting [5] is 89 % of control.

With `CCCC1(c2ccccc2)CC(=O)NC1=O` (configuration not stated), the T/C (dose: 60.0 mg/kg/injection, schedule: Q01DX005 (ip), vehicle: saline) is 98 % of control; the T/C (dose: 120.0 mg/kg/injection, schedule: Q01DX005 (ip), vehicle: saline) is 98 % of control; the T/C (dose: 240.0 mg/kg/injection, schedule: Q01DX005 (ip), vehicle: saline) was 102 % of control.

Take `CCOC(=O)c1ccc(NC(=O)Nc2ccc(NC(C)=O)cc2)cc1`: the T/C (dose: 15.0 mg/kg/injection, schedule: Q01DX005 (ip), vehicle: Klucel (hydroxypropylcellulose) (HPC)) was 95 % of control; the T/C (dose: 30.0 mg/kg/injection, schedule: Q01DX005 (ip), vehicle: Klucel (hydroxypropylcellulose) (HPC)) was 96 % of control; the T/C (dose: 60.0 mg/kg/injection, schedule: Q01DX005 (ip), vehicle: Klucel (hydroxypropylcellulose) (HPC)) was 87 % of control and 88 % of control and 93 % of control; the T/C (dose: 120.0 mg/kg/injection, schedule: Q01DX005 (ip), vehicle: Klucel (hydroxypropylcellulose) (HPC)) is 87 % of control; the T/C (dose: 240.0 mg/kg/injection, schedule: Q01DX005 (ip), vehicle: Klucel (hydroxypropylcellulose) (HPC)) is 87 % of control.

As to `O=S(=O)(O)c1ccccc1N=Nc1ccc(N(CCCl)CCCl)cc1`, the T/C under setting [1] is 156 % of control.

Turning to `COc1ccc(OC)c(CCN2C(=O)c3cccc4c([N+](=O)[O-])ccc(c34)C2=O)c1`, the T/C was 98 % of control under setting [11], 106 % of control under setting [12] and 113 % of control under setting [13].

For `CSc1cccc2c(NCCCCCCCCNc3c4ccccc4nc4c(SC)cccc34)c3ccccc3nc12`, the T/C is, setting by setting: (dose: 0.32 mg/kg/injection, schedule: Q01DX009 (ip), vehicle: other) 101 % of control; (dose: 0.63 mg/kg/injection, schedule: Q01DX009 (ip), vehicle: other) 104 % of control; (dose: 1.25 mg/kg/injection, schedule: Q01DX009 (ip), vehicle: other) 113 % of control; (dose: 2.5 mg/kg/injection, schedule: Q01DX009 (ip), vehicle: other) 113 % of control; (dose: 5.0 mg/kg/injection, schedule: Q01DX009 (ip), vehicle: other) 109 % of control; (dose: 10.0 mg/kg/injection, schedule: Q01DX009 (ip), vehicle: other) 111 % of control.

On to `COc1ccc(Cl)cc1NC(=O)Nc1nccs1`, for which the T/C runs as follows: (dose: 25.0 mg/kg/injection, schedule: Q01DX009 (ip), vehicle: Klucel (hydroxypropylcellulose) (HPC)) 90 % of control; under setting [11], 90 % of control; under setting [12], 90 % of control; under setting [13], 88 % of control.

As to `CC(C)c1cccc(C(C)C)c1NC(=O)OCCN(C)C`, the T/C reads like this: under setting [2], 100 % of control; under setting [3], 115 % of control.

Consider `CCOC(=O)C1=C(C(=O)c2ccc(OC)cc2)C(c2ccc(Cl)cc2Cl)C(C(=O)c2ccc(OC)cc2)=C(C(=O)OCC)N1`, for which the T/C (dose: 30.0 mg/kg/injection, schedule: Q01DX005 (ip), vehicle: saline with Tween-80) was 96 % of control; the T/C under setting [2] is 91 % of control and 94 % of control; the T/C under setting [3] was 101 % of control; the T/C under setting [4] is 92 % of control.

On to `NC(CSC(c1ccccc1)(c1ccccc1)c1ccccc1)C(=O)NCC(=O)O` (configuration not stated), for which the T/C (dose: 600.0 mg/kg/injection, schedule: Q01DX009 (ip), vehicle: saline with Tween-80) is 122 % of control.

Regarding `C=CCOP1(OCC=C)=NP(OCC=C)(OCC=C)=NP(OCC=C)(OCC=C)=N1`, the T/C is 96 % of control under setting [8], 100 % of control under setting [9] and 102 % of control under setting [10].

With `O=C1OCC2C3C=CC(O3)C12` (configuration not stated), the T/C was 100 % of control under setting [6] and 102 % of control under setting [7].
